Each molecule was assayed against T1, TNIK (Homo sapiens, UniProt Q9UKE5) (assay: ADP-Glo Kinase Assay, inhibition activity on TNIK). Conditions: not given.
T1 construct: purchased Promega V4158
Assay type: biochemical
Description: The inhibition activities on TNIK, IKKε and TBK1 were measured by a luminometer, TNIK/IKKε/TBK1 Kinase Enzyme System (Promega, Ca# V4158; Invitrogen, PR8031B, Promega, Ca# V3991) and ADP-Glo Kinase Assay using ADP-Glo™ Kinase Analysis Kit (Promega, Ca# V9101) and a kinase reaction buffer [40 mM Tris(pH 7.5), 20 mM MgCl2, 0.1 mg/mL BSA] in accordance with the manufacturer's protocol.

T1 sequence (Q9UKE5 1-367 limits assumed): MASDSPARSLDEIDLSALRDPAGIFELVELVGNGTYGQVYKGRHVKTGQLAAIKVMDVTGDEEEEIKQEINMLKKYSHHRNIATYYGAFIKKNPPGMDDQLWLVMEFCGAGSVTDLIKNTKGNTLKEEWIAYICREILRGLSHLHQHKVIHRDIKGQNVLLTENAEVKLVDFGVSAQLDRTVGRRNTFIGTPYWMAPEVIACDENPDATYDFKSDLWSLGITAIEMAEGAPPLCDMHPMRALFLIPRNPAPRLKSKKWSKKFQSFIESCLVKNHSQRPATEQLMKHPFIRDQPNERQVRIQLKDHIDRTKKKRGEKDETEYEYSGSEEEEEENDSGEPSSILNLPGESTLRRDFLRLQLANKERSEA

Row | TNIK (μM) | SMILES
1 | Insoluble | CN(C)CCCNc1ccc(C(=O)Nc2ccc(-c3cccc(F)c3F)c3c2C(=O)NC3)cc1 [Example 368, N-(7-(2,3-difluorophenyl)-3-oxoisoindolin-4-yl)-4-((3-(dimethylamino)propyl)amino)benzamide]
2 | Insoluble | O=C(Nc1ccc(-c2cccs2)c2c1C(=O)NC2)c1ccc(NCCO)cc1 [Example 371, 4-((2-Hydroxyethyl)amino)-N-(3-oxo-7-(thiophen-2-yl)isoindolin-4-yl)benzamide]

Same assay, conditions: read-out: TNIK

Row | SMILES | IC50 [µM]
3 | O=C(Nc1ccc(-c2ccccc2)c2c1C(=O)NC2)c1ccc(NCCN2CCCCCC2)cc1 [Example 369, 4-((2-(Azepan-1-yl)ethyl)amino)-N-(3-oxo-7-phenylisoindolin-4-yl)benzamide] | 0.56
4 | O=C(Nc1ccc(-c2ccccc2)c2c1C(=O)NC2)c1ccc(NCCCN2CCCCC2)cc1 [Example 370, N-(3-oxo-7-phenylisoindolin-4-yl)-4-((3-(piperidin-1-yl)propyl)amino)benzamide] | 0.51
5 | COCCNc1ccc(C(=O)Nc2ccc(-c3cccs3)c3c2C(=O)NC3)cc1 [Example 372, 4-((2-Methoxyethyl)amino)-N-(3-oxo-7-(thiophen-2-yl)isoindolin-4-yl)benzamide] | 1.36
6 | O=C(Nc1ccc(-c2cccs2)c2c1C(=O)NC2)c1ccc(NCCN2CCCCC2)cc1 [Example 374, N-(3-oxo-7-(thiophen-2-yl)isoindolin-4-yl)-4-((2-(piperidin-1-yl)ethyl)amino)benzamide] | 0.48
7 | O=C(Nc1ccc(-c2cccs2)c2c1C(=O)NC2)c1ccc(NCCN2CCOCC2)cc1 [Example 375, 4-((2-Morpholinoethyl)amino)-N-(3-oxo-7-(thiophen-2-yl)isoindolin-4-yl) benzamide] | 0.54
8 | O=C(Nc1ccc(-c2cc3ccccc3o2)c2c1C(=O)NC2)c1ccc(NCCN2CCCC2)cc1 [Example 384, N-(7-(benzofuran-2-yl)-3-oxoisoindolin-4-yl)-4-((2-(pyrrolidin-1-yl)ethyl)amino)benzamide] | 1.11
9 | O=C(Nc1ccc(-c2ccc3ncccc3c2)c2c1C(=O)NC2)c1ccc(NCCN2CCCC2)cc1 [Example 385, N-(3-oxo-7-(quinolin-6-yl)isoindolin-4-yl)-4-((2-(pyrrolidin-1-yl)ethyl)amino)benzamide] | 0.78
10 | O=C(Nc1ccc(C(=O)O)c2c1C(=O)NC2)c1ccc(F)cc1 [Example 388, 7-(4-Fluorobenzamido)-1-oxoisoindoline-4-carboxylic acid] | 3.89
11 | CNC(=O)c1ccc(NC(=O)c2ccc(F)cc2)c2c1CNC2=O [Example 389, 7-(4-Fluorobenzamido)-N-methyl-1-oxoisoindoline-4-carboxamide] | > 20
12 | CNC(=O)c1ccc(NC(=O)c2ccc(NCCN3CCCC3)cc2)c2c1CNC2=O [Example 390, N-methyl-1-oxo-7-(4-((2-(pyrrolidin-1-yl)ethyl)amino)benzamido)isoindoline-4-carboxamide] | 3.87
13 | O=C(Nc1ccc(C(=O)N2CCCC2)c2c1C(=O)NC2)c1ccc(F)cc1 [Example 391, 4-Fluoro-N-(3-oxo-7-(pyrrolidine-1-carbonyl)isoindolin-4-yl) benzamide] | > 20
14 | O=C(Nc1ccc(C(=O)N2CCCC2)c2c1C(=O)NC2)c1ccc(NCCN2CCCC2)cc1 [Example 392, N-(3-oxo-7-(pyrrolidine-1-carbonyl)isoindolin-4-yl)-4-((2-(pyrrolidin-1-yl)ethyl)amino)benzamide] | > 20
15 | CC(C)(O)c1ccc(NC(=O)c2ccc(F)cc2)c2c1CNC2=O [Example 393, 4-Fluoro-N-(7-(2-hydroxypropan-2-yl)-3-oxoisoindolin-4-yl) benzamide] | 2.57
16 | CC(C)(O)c1ccc(NC(=O)c2ccc(NCCN3CCCC3)cc2)c2c1CNC2=O [Example 394, N-(7-(2-hydroxypropan-2-yl)-3-oxoisoindolin-4-yl)-4-((2-(pyrrolidin-1-yl)ethyl)amino)benzamide] | 5.44
17 | O=C(Nc1ccc(O)c2c1C(=O)NC2)c1ccc(F)cc1 [Example 396, 4-Fluoro-N-(7-hydroxy-3-oxoisoindolin-4-yl)benzamide] | 1.29
18 | CC(=O)Nc1ccc(C(=O)Nc2ccc(-c3ccccc3)c3c2C(=O)NCC3)cc1 [Example 397, 4-Acetamido-N-(1-oxo-5-phenyl-1,2,3,4-tetrahydroisoquinolin-8-yl)benzamide] | 5.4
19 | O=C(Nc1ccc(-c2ccccc2)c2c1C(=O)NCC2)c1ccccc1 [Example 398, N-(1-oxo-5-phenyl-1,2,3,4-tetrahydroisoquinolin-8-yl) benzamide] | 3.3
20 | O=C(Nc1ccc(-c2ccccc2)c2c1C(=O)NCC2)c1ccco1 [Example 399, N-(1-oxo-5-phenyl-1,2,3,4-tetrahydroisoquinolin-8-yl)furan-2-carboxamide] | 1.8
21 | COc1cccc(-c2ccc(NC(=O)c3ccc(F)cc3)c3c2CCNC3=O)c1OC [Example 400, N-(5-(2,3-dimethoxyphenyl)-1-oxo-1,2,3,4-tetrahydroisoquinolin-8-yl)-4-fluorobenzamide] | 8.18
22 | O=C(Nc1ccc(-c2ccccc2)c2c1C(=O)NCC2)c1ccc(NCCN2CCCC2)cc1 [Example 401, N-(1-oxo-5-phenyl-1,2,3,4-tetrahydroisoquinolin-8-yl)-4-((2-(pyrrolidin-1-yl)ethyl)amino)benzamide] | 2.15
23 | COc1ccccc1-c1ccc(NC(=O)c2ccc(NCCN3CCCC3)cc2)c2c1CCNC2=O [Example 402, N-(5-(2-methoxyphenyl)-1-oxo-1,2,3,4-tetrahydroisoquinolin-8-yl)-4-((2-(pyrrolidin-1-yl)ethyl)amino)benzamide] | 2.38
24 | O=C(Nc1ccc(Br)c2c1C(=O)NCC2)c1ccc(NCCN2CCCC2)cc1 [Example 403, N-(5-bromo-1-oxo-1,2,3,4-tetrahydroisoquinolin-8-yl)-4-((2-(pyrrolidin-1-yl)ethyl)amino)benzamide] | 9.82
25 | O=C(Nc1ccc(Sc2ccccc2)c2c1C(=O)NC2)c1ccc(F)cc1 [Example 404, 4-Fluoro-N-(3-oxo-7-(phenylthio)isoindolin-4-yl)benzamide] | > 20
26 | O=C(Nc1ccc(S(=O)(=O)c2ccccc2)c2c1C(=O)NC2)c1ccccc1 [Example 406, N-(3-oxo-7-(phenylsulfonyl)isoindolin-4-yl)benzamide] | > 20
27 | O=C(Nc1ccc(Sc2ccccc2)c2c1C(=O)NC2)c1ccccc1 [Example 407, N-(3-oxo-7-(phenylthio)isoindolin-4-yl)benzamide] | 2.3
28 | COc1ccccc1Nc1ccc(NC(=O)c2ccccc2)c2c1CNC2=O [Example 410, N-(7-((2-methoxyphenyl)amino)-3-oxoisoindolin-4-yl) benzamide] | 0.45

Second part, the molecule after the results:

Row | IC50 [µM] | SMILES
29 | 0.4 | CN(C)CCNc1ccc(C(=O)Nc2ccc(-c3cccs3)c3c2C(=O)NC3)cc1 [Example 373, 4-((2-(Dimethylamino)ethyl)amino)-N-(3-oxo-7-(thiophen-2-yl)isoindolin-4-yl)benzamide]
30 | 0.38 | O=C(Nc1ccc(-c2ccccc2)c2c1C(=O)NC2)c1ccc(NCCCCO)cc1 [Example 383, 4-((4-Hydroxybutyl)amino)-N-(3-oxo-7-phenylisoindolin-4-yl) benzamide]
31 | 0.36 | Cc1nc2cccc(-c3ccc(NC(=O)c4ccc(NCCN5CCCC5)cc4)c4c3CNC4=O)c2o1 [Example 377, N-(7-(2-methylbenzo[d]oxazol-7-yl)-3-oxoisoindolin-4-yl)-4-((2-(pyrrolidin-1-yl)ethyl)amino)benzamide]
32 | 0.35 | CN1CCN(CCNc2ccc(C(=O)Nc3ccc(-c4ccccc4)c4c3C(=O)NC4)cc2)CC1 [Example 379, 4-((2-(4-Methylpiperazin-1-yl)ethyl)amino)-N-(3-oxo-7-phenylisoindolin-4-yl)benzamide]
33 | 0.33 | O=C(Nc1ccc(-c2ccccc2)c2c1C(=O)NC2)c1ccc(NCCCO)cc1 [Example 382, 4-((3-Hydroxypropyl)amino)-N-(3-oxo-7-phenylisoindolin-4-yl) benzamide]
34 | 0.32 | O=C(Nc1ccc(Nc2ccccc2)c2c1C(=O)NC2)c1ccccc1 [Example 409, N-(3-oxo-7-(phenylamino)isoindolin-4-yl)benzamide]
35 | 0.31 | CN(C)CCCNc1ccc(C(=O)Nc2ccc(-c3ccccc3)c3c2C(=O)NC3)cc1 [Example 381, 4-((3-(Dimethylamino)propyl)amino)-N-(3-oxo-7-phenylisoindolin-4-yl) benzamide]
36 | 0.28 | O=C(Nc1ccc(Nc2ccccc2)c2c1C(=O)NC2)c1ccc(F)cc1 [Example 408, 4-Fluoro-N-(3-oxo-7-(phenylamino)isoindolin-4-yl)benzamide]
37 | 0.23 | O=C(Nc1ccc(-c2ccccc2)c2c1C(=O)NC2)c1ccc(NCCO)cc1 [Example 380, 4-((2-Hydroxyethyl)amino)-N-(3-oxo-7-phenylisoindolin-4-yl) benzamide]
38 | 0.13 | CN1CCN(CCNc2ccc(C(=O)Nc3ccc(-c4cccs4)c4c3C(=O)NC4)cc2)CC1 [Example 378, 4-((2-(4-Methylpiperazin-1-yl)ethyl)amino)-N-(3-oxo-7-(thiophen-2-yl)isoindolin-4-yl)benzamide]
39 | 0.099 | O=C(Nc1ccc(-c2cccc3ncccc23)c2c1C(=O)NC2)c1ccc(NCCN2CCCC2)cc1 [Example 386, N-(3-oxo-7-(quinolin-5-yl)isoindolin-4-yl)-4-((2-(pyrrolidin-1-yl)ethyl)amino)benzamide]
40 | 0.072 | O=C(Nc1ccc(-c2cccc3ncoc23)c2c1C(=O)NC2)c1ccc(NCCN2CCCC2)cc1 [Example 376, N-(7-(benzo[d]oxazol-7-yl)-3-oxoisoindolin-4-yl)-4-((2-(pyrrolidin-1-yl)ethyl)amino)benzamide]
41 | 0.033 | O=C(Nc1ccc(-c2ccnc3ccccc23)c2c1C(=O)NC2)c1ccc(NCCN2CCCC2)cc1 [Example 387, N-(3-oxo-7-(quinolin-4-yl)isoindolin-4-yl)-4-((2-(pyrrolidin-1-yl)ethyl)amino)benzamide]

From US9856216B2, “Compounds as TNIK, IKKε and TBK1 inhibitors and pharmaceutical composition comprising same” (GREEN CROSS CORPORATION, priority 2015, dated 2018)
